Patent publication US5734081A, “Arylthio compounds” (Warner-Lambert Company, priority 1995, dated 1998)

What was measured:
HIV-1RF = assay: Anti-HIV activity, HIV-1RF in CEM cells; format: cell-based; conditions: Human immunodeficiency virus 1, CCRF-CEM; CEM, HIV-1RF; read-out: EC50
Description: (§1) Yet another test system employed to determine antiviral activity is called the CEM cell assay.
(§2) T4 lymphocytes (CEM cell line) are exposed to HIV at a virus to cell ratio approximately 0.05, and plated along with noninfected control cells in 96-well microliter plates.
(§3) The candidate agent is dissolved in dimethyl sulfoxide (unless otherwise noted), then diluted 1:200 in cell culture medium. Further dilutions (half-log10) are prepared before adding to an equal volume of medium containing either infected or noninfected cells. Cultures are incubated at 37° in a 5% carbon dioxide atmosphere for 6 or 7 days. The tetrazolium salt, XTT, is added to all wells, and cultures are incubated to allow formazan color development by viable cells (J. National Cancer Institute, 1989;81:577-586). Individual wells are analyzed spectrophotometrically to quantitate formazan production, and in addition are viewed microscopically for detection of viable cells confirmation of protective activity.
(§4) Drug-tested virus-infected cells are compared with drug-treated noninfected cells and with other appropriate controls (untreated infected and untreated noninfected cells, drug-contain wells without cells, etc.) on the same plate. Data are reviewed in comparison with other tests done at the same time and a determination about activity is made.
(§5) The compounds of the invention were also evaluated against various other HIV strains and cell lines utilizing the assay methodology described above. The compounds were additionally evaluated against clinical isolates of HIV strains.

[1] = CEM cell growth inhibition (XTT, noninfected cells); format: cell-based; conditions: human, CEM Cell Assay, drug alone, read-out: IC50 (Inhibitory Concentration where drug alone inhibits cell growth)
Method in brief: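 Uninfected CEM T4 lymphocytes were run alongside HIV-infected cultures. Compound in DMSO was diluted 1:200 in medium, then in half-log10 steps, and added to an equal volume of cells.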

HIV-1IIIb [2] = assay: Anti-HIV activity, HIV-1IIIb in MT-2 cells; format: cell-based; conditions: Human immunodeficiency virus 1, MT2; MT-2, HIV-1IIIb
Description: as §5

[3] = target: T1, HIV-1 Nucleocapsid Protein (NCp7) (Human immunodeficiency virus type 1 group M subtype B, UniProt P12493); assay: Zinc extrusion assay (TSQ fluorescence) from the zinc fingers of HIV-1 nucleocapsid protein (NCp7); format: biochemical; conditions: 10 μM compound, 2.8 μM NCp7, pH 7.4, 26° C., 90 minutes
T1 construct: The NCp7 protein containing 2 Zn-fingers and 2 Zn ions is incubated with drug
Method in brief: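 Purified NCp7 (2.8 μM, 2 Zn ions) incubated with 10 μM compound and 47 μM TSQ at pH 7.4, 26° C, 90 min; released Zn read by TSQ fluorescence (ex 355, em 400 nm) over time. % extrusion = measured fluorescence over that for full theoretical Zn release (5.6 μM) ×100.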

HIV-1IIIb [4] = assay: Anti-HIV activity, HIV-1IIIb in CEM cells; format: cell-based; conditions: CEM, HIV-1IIIb, read-out: EC50
Description: as §1, §2, §3, §4, §5

HIV-1BAKI = assay: Anti-HIV activity, clinical isolate HIV-1BAKI in PBL; format: cell-based
Description: as §5

HIV-1IIIb [5] = assay: Anti-HIV activity, HIV-1IIIb in AA5 cells; format: cell-based; conditions: Human immunodeficiency virus 1; AA5, HIV-1IIIb
Description: as §5

[6] = H9 cell cytotoxicity (XTT assay, uninfected cells); format: cell-based; conditions: human, drug alone, read-out: IC50 (Inhibitory Concentration where drug alone inhibits cell growth)
Description: The H9 T-cell line is batch infected with HIV virus at an M0I of 0.01. After 2 hours absorption, the cells are washed, resuspended in RPMI-1640/10% fetal calf serum, and seeded at […] of a 96-well plate. A duplicate plate of uninfected H9 cells is prepared for the cytotoxicity assay. Drugs are serially diluted 1/3.16 in DMSO, transferred to media at an 8× concentration, and then added to the cultures in triplicate. The final DMSO concentration of 0.002 (0.2%).
Viral production is measured by RT assay and cytotoxicity is measured by XTT assay at 7 days post-infection. The RT assay is performed as a modification of Borroto-Esoda and Boone, J. Virol., 1991;65:1952-1959 and quantitated using a Molecular Dynamics Phosphoimager with Imagequant software. The XTT assay is performed as a modification of Roehm, et al., J. Immuno. Methods., 1991;142:257-265 and quantitated using a molecular Devices Thermomax plate reader with Softmax software.
Data is electronically transferred to a Microsoft Excell spreadsheet for analysis. The RT assay values equivalent to 50% and 90% inhibition of virus production are calculated from the untreated controls. The concentrations of inhibitor required to produce these values (IC50 and IC90) are interpolated from data points flanking these RT activities. The XTT assay values equivalent to 50% cytotoxicity are calculated from the untreated controls. The concentrations of inhibitor required to produce this value are interpolated from data points flanking these XTT values.

HIV-1WOME = assay: Anti-HIV activity, clinical isolate HIV-1WOME in PBL; format: cell-based; conditions: Human immunodeficiency virus 1
Description: as §5

HIV-1N119 = assay: Anti-HIV activity, HIV-1N119 in CEM cells; format: cell-based; conditions: Human immunodeficiency virus 1, CCRF-CEM
Description: as §1, §2, §3, §4, §5

SIV = assay: Antiviral activity, SIV in CEM cells; format: cell-based; conditions: Simian immunodeficiency virus, CCRF-CEM, read-out: EC50
HIV-2ROD = assay: Anti-HIV activity, HIV-2ROD in CEM cells; format: cell-based; conditions: Human immunodeficiency virus 2, CCRF-CEM; CEM, HIV-2ROD; read-out: EC50
Description: as §1, §2, §3, §4, §5

[7] = Human immunodeficiency virus 1, CCRF-CEM
[8] = Human immunodeficiency virus 1, PBL

SMILES: NS(=O)(=O)c1ccc(NC(=O)c2ccccc2SSc2ccccc2C(=O)Nc2ccc(S(N)(=O)=O)cc2)cc1 [Example 1]
- EC50 (HIV-1RF): 2.3 µM
- CC50 [1]: > 120 µM
- EC50 (HIV-1IIIb [2]): 2.6 µM
- % Zinc Extrusion Relative to Control [3]: 20%
- EC50 (HIV-1IIIb [4]): 4.6 µM
- EC50 (HIV-1IIIb [4]; [7]): 2.8 µM
- EC50 (HIV-1BAKI; [8]): 0.3 µM
- EC50 (HIV-1BAKI; PBL): 0.25 µM
- EC50 (HIV-1IIIb [5]): 0.9 µM
- CC50 at 168 h [6]: 36 µM
- EC50 (HIV-1WOME): 4 µM
- EC50 (HIV-1N119): 2.2 µM
- EC50 (SIV): 14.6 µM
- EC50 (HIV-2ROD): 2.6 µM

SMILES: CC(=O)Nc1ccc(SSc2ccc(NC(C)=O)cc2C(N)=O)c(C(N)=O)c1 [Example 9, 2,2'-Dithiobis(5-acetylamino)benzamide]
- EC50 (HIV-1RF): 0.4 µM
- CC50 [1]: > 120 µM
- EC50 (HIV-1IIIb [2]): 9.4 µM
- % Zinc Extrusion Relative to Control [3]: 77%
- EC50 (HIV-1IIIb [4]; [7]): 0.4 µM
- EC50 (HIV-1BAKI; [8]): 1.8 µM
- EC50 (HIV-1IIIb [5]): 3.5 µM
- CC50 at 168 h [6]: > 100 µM
- EC50 (HIV-1WOME): 5.7 µM
- EC50 (HIV-1N119): 2.3 µM
- EC50 (SIV): 2.1 µM
- EC50 (HIV-2ROD): 1 µM
